According to ChEMBL document CHEMBL1201862, “PubChem BioAssay data set” (2004):
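Protocol summary: plate cells (96-well), add compound at 5 concentrations, incubate 48 h, interpolate endpoints linearly. GI50: concentration for 50% inhibition of growth.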 Active and inactive are the calls of the source. Cut-off read from the data, not from the text of the source: active = GI50 up to about 1.1 µM and inactive = higher.

Experiments:
Test in all cases: NCI-60 cell line screen, 48 h
T47D = test system: T47D
HOP-92 = test system: HOP-92
A549 = test system: A549
SF-295 = test system: SF-295
SK-MEL-5 = test system: SK-MEL-5
LOX IMVI = test system: LOX IMVI
NCI-H23 = test system: NCI-H23
CAKI-1 = test system: CAKI-1
IGROV-1 = test system: IGROV-1
NCI-H460 = test system: NCI-H460
SNB-75 = test system: SNB-75
TK-10 = test system: TK-10
UACC-62 = test system: UACC-62
NCI/ADR-RES = test system: NCI/ADR-RES
CCRF-CEM = test system: CCRF-CEM
MOLT-4 = test system: MOLT-4
U-251 = test system: U-251
MDA-MB-435 = test system: MDA-MB-435
HCT-116 = test system: HCT-116
OVCAR-4 = test system: OVCAR-4

Row | SMILES | GI50 (T47D) | GI50 (HOP-92) | GI50 (A549) | GI50 (SF-295) | GI50 (SK-MEL-5) | GI50 (LOX IMVI) | GI50 (NCI-H23) | GI50 (CAKI-1) | GI50 (IGROV-1) | GI50 (NCI-H460) | GI50 (SNB-75) | GI50 (TK-10) | GI50 (UACC-62) | GI50 (NCI/ADR-RES) | GI50 (CCRF-CEM) | GI50 (MOLT-4) | GI50 (U-251) | GI50 (MDA-MB-435) | GI50 (HCT-116) | GI50 (OVCAR-4)
1 | CC(=O)OCC1OC(n2c3c(cc(C#N)c2=S)CCCCCC3)C(OC(C)=O)C(OC(C)=O)C1OC(C)=O (stereo not given) | 5.2 µM (inactive) | > 100 µM (inactive) | > 100 µM (inactive) | > 100 µM (inactive) | 72.1 µM (inactive) | 21.5 µM (inactive) | > 100 µM (inactive) | > 10 µM (inactive) | > 100 µM (inactive) | 42.2 µM (inactive) | 27.2 µM (inactive) | > 100 µM (inactive) | 54.7 µM (inactive) | > 100 µM (inactive) | 47.3 µM (inactive) | 26.1 µM (inactive) | 91 µM (inactive) | > 100 µM (inactive) | 37.8 µM (inactive) | > 100 µM (inactive)
2 | CC[C@@]1(O)C(=O)OCc2c1cc1n(c2=O)Cc2c-1nc1ccccc1c2/C=N\NC(=O)C(N)=O | < 0.01 µM (active) | 0.222 µM (active) | 0.859 µM (active) | 0.151 µM (active) | 0.222 µM (active) | 0.0389 µM (active) | 0.0543 µM (active) | 0.0655 µM (active) | 4.79 µM (inactive) | 0.0559 µM (active) | 0.558 µM (active) | 43.6 µM (inactive) | 0.0332 µM (active) | 1.6 µM (inactive) | < 0.01 µM (active) | < 0.0138 µM (active) | 0.0398 µM (active) | 2.32 µM (inactive) | 0.161 µM (active) | 38.3 µM (inactive)
3 | O=C(Nc1ccc(Cl)c(C(F)(F)F)c1)C(=O)c1c(O)c2ccccc2oc1=O | > 100 µM (inactive) | > 100 µM (inactive) | > 100 µM (inactive) | > 100 µM (inactive) | > 100 µM (inactive) | > 100 µM (inactive) | > 100 µM (inactive) | > 100 µM (inactive) | > 100 µM (inactive) | > 100 µM (inactive) | > 100 µM (inactive) | > 100 µM (inactive) | > 100 µM (inactive) | > 100 µM (inactive) | > 100 µM (inactive) | > 100 µM (inactive) | > 100 µM (inactive) | > 100 µM (inactive) | > 100 µM (inactive) | > 100 µM (inactive)
4 | C1COCCN1.S=C(S)N1CCOCC1 | > 100 µM (inactive) | 30 µM (inactive) | 8.24 µM (inactive) | > 100 µM (inactive) | 7.59 µM (inactive) | 18.3 µM (inactive) | 2.43 µM (inactive) | 5.51 µM (inactive) | 6.76 µM (inactive) | 5.87 µM (inactive) | 7.08 µM (inactive) | > 100 µM (inactive) | 3.8 µM (inactive) | > 100 µM (inactive) | 0.526 µM (active) | 1.47 µM (inactive) | 4.98 µM (inactive) | > 100 µM (inactive) | 2.12 µM (inactive) | 6.9 µM (inactive)
5 | Cn1c(=O)n2n(c1=O)Cc1cccc3cccc(c13)C2 | > 100 µM (inactive) | > 100 µM (inactive) | > 100 µM (inactive) | > 100 µM (inactive) | > 100 µM (inactive) | > 100 µM (inactive) | > 100 µM (inactive) | > 100 µM (inactive) | – | > 100 µM (inactive) | > 100 µM (inactive) | > 100 µM (inactive) | > 100 µM (inactive) | > 100 µM (inactive) | > 100 µM (inactive) | > 100 µM (inactive) | > 100 µM (inactive) | > 100 µM (inactive) | > 100 µM (inactive) | > 100 µM (inactive)
6 | CCOC(=O)c1c(O)cn2c1[nH]c1cccc3cccc2c31 | 50.8 µM (inactive) | 51.4 µM (inactive) | > 100 µM (inactive) | 87.5 µM (inactive) | > 100 µM (inactive) | 46.9 µM (inactive) | 62.4 µM (inactive) | > 100 µM (inactive) | 62.2 µM (inactive) | 92.7 µM (inactive) | 37.4 µM (inactive) | > 100 µM (inactive) | > 100 µM (inactive) | > 100 µM (inactive) | 32.6 µM (inactive) | 44.2 µM (inactive) | 63.4 µM (inactive) | > 100 µM (inactive) | > 100 µM (inactive) | > 100 µM (inactive)
7 | CCNC(=O)Cc1nc2c(O)ncnc2n1C1OC(CO)C(O)C1O (stereo not given) | > 100 µM (inactive) | > 100 µM (inactive) | > 100 µM (inactive) | > 100 µM (inactive) | > 100 µM (inactive) | > 100 µM (inactive) | > 100 µM (inactive) | > 100 µM (inactive) | > 100 µM (inactive) | > 100 µM (inactive) | > 100 µM (inactive) | > 100 µM (inactive) | > 100 µM (inactive) | > 100 µM (inactive) | > 100 µM (inactive) | > 100 µM (inactive) | > 100 µM (inactive) | > 100 µM (inactive) | > 100 µM (inactive) | > 100 µM (inactive)
8 | CC(=O)Oc1c2oc3ccc(Cl)cc3c(=O)c2c(O)c2ccsc12 | 0.132 µM (active) | > 100 µM (inactive) | > 100 µM (inactive) | > 100 µM (inactive) | > 100 µM (inactive) | > 100 µM (inactive) | > 100 µM (inactive) | > 100 µM (inactive) | – | > 100 µM (inactive) | 52.4 µM (inactive) | 27.6 µM (inactive) | > 100 µM (inactive) | > 100 µM (inactive) | 86.1 µM (inactive) | – | > 100 µM (inactive) | > 100 µM (inactive) | > 100 µM (inactive) | > 100 µM (inactive)
9 | O=C(O)CCC1(CCC(=O)O)CCCCCCCCC(CCC(=O)O)(CCC(=O)O)C(=O)C1=O | > 100 µM (inactive) | > 100 µM (inactive) | > 100 µM (inactive) | > 100 µM (inactive) | – | > 100 µM (inactive) | > 100 µM (inactive) | > 100 µM (inactive) | – | > 100 µM (inactive) | > 100 µM (inactive) | > 100 µM (inactive) | > 100 µM (inactive) | > 100 µM (inactive) | – | – | > 100 µM (inactive) | > 100 µM (inactive) | > 100 µM (inactive) | > 100 µM (inactive)
10 | O=C1Nc2cccc(Cl)c2/C1=C\c1cccnc1 | 3.65 µM (inactive) | 27.7 µM (inactive) | 11.1 µM (inactive) | 16.7 µM (inactive) | 11.4 µM (inactive) | 0.944 µM (active) | 3.75 µM (inactive) | 10.2 µM (inactive) | – | 8.22 µM (inactive) | 15.5 µM (inactive) | 17.8 µM (inactive) | – | 4.43 µM (inactive) | 4.58 µM (inactive) | 4.23 µM (inactive) | 6.47 µM (inactive) | 5.53 µM (inactive) | 3.16 µM (inactive) | 12.7 µM (inactive)
11 | Brc1ccc2c(c1)-c1nc3c(cc1CC2)CCc1ccc(Br)cc1-3 | > 100 µM (inactive) | > 100 µM (inactive) | > 100 µM (inactive) | > 100 µM (inactive) | > 100 µM (inactive) | > 100 µM (inactive) | > 100 µM (inactive) | > 100 µM (inactive) | > 100 µM (inactive) | > 100 µM (inactive) | > 100 µM (inactive) | > 100 µM (inactive) | – | > 100 µM (inactive) | > 100 µM (inactive) | 42.4 µM (inactive) | > 100 µM (inactive) | > 100 µM (inactive) | > 100 µM (inactive) | > 100 µM (inactive)
